In US6355799B1, “Substituted benzene compounds, process for their preparation, and herbicidal and defoliant compositions containing them” (ISK Americas Incorporated, priority 1997, dated 2002):

Legend:
Format in all cases: in vivo
[1] = tested on: field corn (Zea mays L., var. Dekalb 535, CORN); assay: Post-emerge test, crop safety; conditions: rating scale 0-100 (0 no damage, 100 complete death), 14 days after application
Outline: (§1)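 Herbicidal damage is scored 0 (none) to 100 (complete plant death) two weeks after a simulated field spray. Rates span 15–1000 g ai/ha, delivered in acetone at 187 l/ha. For post-emergence treatments, plants have 2–3 leaves and the spray carries 0.25% v/v non-ionic surfactant.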

[2] = tested on: upland rice (Oryza sp., var. Tebonnet, RICE); assay: Post-emerge test, crop safety; conditions: rating scale 0-100 (0 no damage, 100 complete death), 14 days after application
Outline: as §1

[3] = tested on: field corn (Zea mays L., var. Dekalb 535, CORN); assay: Pre-emerge test, crop safety; conditions: rating scale 0-100, 14 days after application
Outline: (§2)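 Compounds in acetone were track-sprayed at 187 l/ha, 15–1000 g ai/ha, onto sandy loam pots. Pre-emerge seeds were sown one day before spraying, with surface watering afterwards. Post-emerge plants were at the 2–3 leaf stage and sprayed with 0.25% v/v non-ionic surfactant. Injury was rated 0–100 at 14 days.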

[4] = tested on: upland rice (Oryza sp., var. Tebonnet, RICE); assay: Pre-emerge test, crop safety; conditions: rating scale 0-100, 14 days after application
Outline: as §2

[5] = tested on: redroot pigweed (Amaranthus retroflexus, AMARE); assay: Pre-emerge test, greenhouse herbicide activity screening; conditions: rating scale 0-100, 14 days after application
Outline: as §2

[6] = tested on: lambsquarters (Chenopodium album, CHEAL); assay: as above; conditions: rating scale 0-100, 14 days after application
Outline: as §1

[7] = tested on: large crabgrass (Digitaria sanguinalis, DIGSA); assay: as above; conditions: rating scale 0-100, 14 days after application
Outline: as §1

[8] = tested on: johnsongrass (Sorghum halepense, SORHA); assay: as above; conditions: rating scale 0-100, 14 days after application
Outline: as §1

[9] = tested on: barnyardgrass (Echinochloa crus-galli, ECHCG); assay: as above; conditions: rating scale 0-100, 14 days after application
Outline: as §1

[10] = tested on: ivyleaf morningglory (Ipomoea hederacea, IPOHE); assay: as above; conditions: rating scale 0-100, 14 days after application
Outline: as §1

[11] = tested on: sicklepod (Cassia obtusifolia, CASOB); assay: as above; conditions: rating scale 0-100, 14 days after application
Outline: as §1

[12] = tested on: green foxtail (Setaria viridis, SETVI); assay: as above; conditions: rating scale 0-100, 14 days after application
Outline: as §1

[13] = tested on: velvetleaf (Abutilon theophrasti, ABUTH); assay: as above; conditions: rating scale 0-100, 14 days after application
Outline: as §1

[14] = tested on: lambsquarters (Chenopodium album, CHEAL); assay: Post-emerge test, greenhouse herbicide activity screening; conditions: rating scale 0-100 (0 no damage, 100 complete death), 14 days after application
Outline: (§3)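 Plants grown in 10 cm pots of sandy loam mix received acetone-dissolved compounds through a moving flat-fan nozzle. Doses ranged from 15 to 1000 g ai/ha. Pre-emerge pots were seeded one day earlier, post-emerge pots 8–21 days earlier. Fourteen days on, each pot was graded 0–100 for damage.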

[15] = tested on: large crabgrass (Digitaria sanguinalis, DIGSA); assay: as above; conditions: rating scale 0-100 (0 no damage, 100 complete death), 14 days after application
Outline: as §3

[16] = tested on: johnsongrass (Sorghum halepense, SORHA); assay: as above; conditions: rating scale 0-100 (0 no damage, 100 complete death), 14 days after application
Outline: as §3

[17] = tested on: barnyardgrass (Echinochloa crus-galli, ECHCG); assay: as above; conditions: rating scale 0-100 (0 no damage, 100 complete death), 14 days after application
Outline: as §3

[18] = tested on: ivyleaf morningglory (Ipomoea hederacea, IPOHE); assay: as above; conditions: rating scale 0-100 (0 no damage, 100 complete death), 14 days after application
Outline: as §3

[19] = tested on: sicklepod (Cassia obtusifolia, CASOB); assay: as above; conditions: rating scale 0-100 (0 no damage, 100 complete death), 14 days after application
Outline: as §3

[20] = tested on: redroot pigweed (Amaranthus retroflexus, AMARE); assay: as above; conditions: rating scale 0-100 (0 no damage, 100 complete death), 14 days after application
Outline: as §3

[21] = tested on: common ragweed (Ambrosia artemisizfolia L., AMBEL); assay: as above; conditions: rating scale 0-100 (0 no damage, 100 complete death), 14 days after application
Outline: as §3

[22] = tested on: green foxtail (Setaria viridis, SETVI); assay: as above; conditions: rating scale 0-100 (0 no damage, 100 complete death), 14 days after application
Outline: as §3

[23] = tested on: velvetleaf (Abutilon theophrasti, ABUTH); assay: as above; conditions: rating scale 0-100 (0 no damage, 100 complete death), 14 days after application
Outline: as §3

SMILES: CCOC(=O)C(Br)Cc1c(OC)c(Cl)cc(F)c1-n1c(=O)cc(C(F)(F)F)n(C)c1=O (single isomer, unassigned) [14-32]
- Post-emerge phytotoxicity rating CORN (crop damage) ([1]; Rate 63 g ai/ha): 0
- Post-emerge phytotoxicity rating CORN (crop damage) ([1]; Rate 250 g ai/ha): 0
- Post-emerge phytotoxicity rating RICE (crop damage) ([2]; Rate 63 g ai/ha): 0
- Post-emerge phytotoxicity rating RICE (crop damage) ([2]; Rate 250 g ai/ha): 0
- Pre-emerge phytotoxicity rating, crop damage CORN ([3]; 63 g ai/ha): 0
- Pre-emerge phytotoxicity rating, crop damage CORN ([3]; 250 g ai/ha): 0
- Pre-emerge phytotoxicity rating, crop damage RICE ([4]; 63 g ai/ha): 0
- Pre-emerge phytotoxicity rating, crop damage RICE ([4]; 250 g ai/ha): 10
- Pre-emerge herbicidal activity, phytotoxicity rating AMARE ([5]; 63 g ai/ha): 100
- Pre-emerge herbicidal activity, phytotoxicity rating AMARE ([5]; 250 g ai/ha): 100
- Pre-emerge herbicidal activity, phytotoxicity rating CHEAL ([6]; 63 g ai/ha): 80
- Pre-emerge herbicidal activity, phytotoxicity rating CHEAL ([6]; 250 g ai/ha): 100
- Pre-emerge herbicidal activity, phytotoxicity rating DIGSA ([7]; 63 g ai/ha): 20
- Pre-emerge herbicidal activity, phytotoxicity rating DIGSA ([7]; 250 g ai/ha): 100
- Pre-emerge herbicidal activity, phytotoxicity rating SORHA ([8]; 63 g ai/ha): 0
- Pre-emerge herbicidal activity, phytotoxicity rating SORHA ([8]; 250 g ai/ha): 20
- Pre-emerge herbicidal activity, phytotoxicity rating ECHCG ([9]; 63 g ai/ha): 0
- Pre-emerge herbicidal activity, phytotoxicity rating ECHCG ([9]; 250 g ai/ha): 30
- Pre-emerge herbicidal activity, phytotoxicity rating IPOHE ([10]; 63 g ai/ha): 0
- Pre-emerge herbicidal activity, phytotoxicity rating IPOHE ([10]; 250 g ai/ha): 0
- Pre-emerge herbicidal activity, phytotoxicity rating CASOB ([11]; 63 g ai/ha): 0
- Pre-emerge herbicidal activity, phytotoxicity rating CASOB ([11]; 250 g ai/ha): 30
- Pre-emerge herbicidal activity, phytotoxicity rating SETVI ([12]; 63 g ai/ha): 0
- Pre-emerge herbicidal activity, phytotoxicity rating SETVI ([12]; 250 g ai/ha): 40
- Pre-emerge herbicidal activity, phytotoxicity rating ABUTH ([13]; 63 g ai/ha): 10
- Pre-emerge herbicidal activity, phytotoxicity rating ABUTH ([13]; 250 g ai/ha): 50
- Post-emerge Herbicidal Activity, phytotoxicity rating CHEAL ([14]; Rate 63 g ai/ha): 0
- Post-emerge Herbicidal Activity, phytotoxicity rating CHEAL ([14]; Rate 250 g ai/ha): 80
- Post-emerge Herbicidal Activity, phytotoxicity rating DIGSA ([15]; Rate 63 g ai/ha): 70
- Post-emerge Herbicidal Activity, phytotoxicity rating DIGSA ([15]; Rate 250 g ai/ha): 90
- Post-emerge Herbicidal Activity, phytotoxicity rating SORHA ([16]; Rate 63 g ai/ha): 0
- Post-emerge Herbicidal Activity, phytotoxicity rating SORHA ([16]; Rate 250 g ai/ha): 10
- Post-emerge Herbicidal Activity, phytotoxicity rating ECHCG ([17]; Rate 63 g ai/ha): 100
- Post-emerge Herbicidal Activity, phytotoxicity rating ECHCG ([17]; Rate 250 g ai/ha): 100
- Post-emerge Herbicidal Activity, phytotoxicity rating IPOHE ([18]; Rate 63 g ai/ha): 0
- Post-emerge Herbicidal Activity, phytotoxicity rating IPOHE ([18]; Rate 250 g ai/ha): 20
- Post-emerge Herbicidal Activity, phytotoxicity rating CASOB ([19]; Rate 63 g ai/ha): 20
- Post-emerge Herbicidal Activity, phytotoxicity rating CASOB ([19]; Rate 250 g ai/ha): 40
- Post-emerge Herbicidal Activity, phytotoxicity rating AMARE ([20]; Rate 63 g ai/ha): 95
- Post-emerge Herbicidal Activity, phytotoxicity rating AMARE ([20]; Rate 250 g ai/ha): 100
- Post-emerge Herbicidal Activity, phytotoxicity rating AMBEL ([21]; Rate 63 g ai/ha): 40
- Post-emerge Herbicidal Activity, phytotoxicity rating AMBEL ([21]; Rate 250 g ai/ha): 40
- Post-emerge Herbicidal Activity, phytotoxicity rating SETVI ([22]; Rate 63 g ai/ha): 40
- Post-emerge Herbicidal Activity, phytotoxicity rating SETVI ([22]; Rate 250 g ai/ha): 70
- Post-emerge Herbicidal Activity, phytotoxicity rating ABUTH ([23]; Rate 63 g ai/ha): 90
- Post-emerge Herbicidal Activity, phytotoxicity rating ABUTH ([23]; Rate 250 g ai/ha): 95

SMILES: CCOC(=O)C(Br)Cc1c(OC)c(Cl)cc(F)c1-n1c(=O)cc(C(F)(F)F)n(C)c1=O (single isomer, unassigned) [14-33]
- Post-emerge phytotoxicity rating CORN (crop damage) ([1]; Rate 63 g ai/ha): 10
- Post-emerge phytotoxicity rating CORN (crop damage) ([1]; Rate 250 g ai/ha): 95
- Post-emerge phytotoxicity rating RICE (crop damage) ([2]; Rate 63 g ai/ha): 0
- Post-emerge phytotoxicity rating RICE (crop damage) ([2]; Rate 250 g ai/ha): 0
- Pre-emerge phytotoxicity rating, crop damage CORN ([3]; 63 g ai/ha): 10
- Pre-emerge phytotoxicity rating, crop damage CORN ([3]; 250 g ai/ha): 20
- Pre-emerge phytotoxicity rating, crop damage RICE ([4]; 63 g ai/ha): 0
- Pre-emerge phytotoxicity rating, crop damage RICE ([4]; 250 g ai/ha): 10
- Pre-emerge herbicidal activity, phytotoxicity rating AMARE ([5]; 63 g ai/ha): 100
- Pre-emerge herbicidal activity, phytotoxicity rating AMARE ([5]; 250 g ai/ha): 100
- Pre-emerge herbicidal activity, phytotoxicity rating CHEAL ([6]; 63 g ai/ha): 0
- Pre-emerge herbicidal activity, phytotoxicity rating CHEAL ([6]; 250 g ai/ha): 90
- Pre-emerge herbicidal activity, phytotoxicity rating DIGSA ([7]; 63 g ai/ha): 0
- Pre-emerge herbicidal activity, phytotoxicity rating DIGSA ([7]; 250 g ai/ha): 99
- Pre-emerge herbicidal activity, phytotoxicity rating SORHA ([8]; 63 g ai/ha): 0
- Pre-emerge herbicidal activity, phytotoxicity rating SORHA ([8]; 250 g ai/ha): 30
- Pre-emerge herbicidal activity, phytotoxicity rating ECHCG ([9]; 63 g ai/ha): 0
- Pre-emerge herbicidal activity, phytotoxicity rating ECHCG ([9]; 250 g ai/ha): 0
- Pre-emerge herbicidal activity, phytotoxicity rating IPOHE ([10]; 63 g ai/ha): 0
- Pre-emerge herbicidal activity, phytotoxicity rating IPOHE ([10]; 250 g ai/ha): 0
- Pre-emerge herbicidal activity, phytotoxicity rating CASOB ([11]; 63 g ai/ha): 0
- Pre-emerge herbicidal activity, phytotoxicity rating CASOB ([11]; 250 g ai/ha): 0
- Pre-emerge herbicidal activity, phytotoxicity rating SETVI ([12]; 63 g ai/ha): 0
- Pre-emerge herbicidal activity, phytotoxicity rating SETVI ([12]; 250 g ai/ha): 50
- Pre-emerge herbicidal activity, phytotoxicity rating ABUTH ([13]; 63 g ai/ha): 20
- Pre-emerge herbicidal activity, phytotoxicity rating ABUTH ([13]; 250 g ai/ha): 90
- Post-emerge Herbicidal Activity, phytotoxicity rating CHEAL ([14]; Rate 63 g ai/ha): 20
- Post-emerge Herbicidal Activity, phytotoxicity rating CHEAL ([14]; Rate 250 g ai/ha): 70
- Post-emerge Herbicidal Activity, phytotoxicity rating DIGSA ([15]; Rate 63 g ai/ha): 70
- Post-emerge Herbicidal Activity, phytotoxicity rating DIGSA ([15]; Rate 250 g ai/ha): 100
- Post-emerge Herbicidal Activity, phytotoxicity rating SORHA ([16]; Rate 63 g ai/ha): 10
- Post-emerge Herbicidal Activity, phytotoxicity rating SORHA ([16]; Rate 250 g ai/ha): 95
- Post-emerge Herbicidal Activity, phytotoxicity rating ECHCG ([17]; Rate 63 g ai/ha): 100
- Post-emerge Herbicidal Activity, phytotoxicity rating ECHCG ([17]; Rate 250 g ai/ha): 100
- Post-emerge Herbicidal Activity, phytotoxicity rating IPOHE ([18]; Rate 63 g ai/ha): 20
- Post-emerge Herbicidal Activity, phytotoxicity rating IPOHE ([18]; Rate 250 g ai/ha): 20
- Post-emerge Herbicidal Activity, phytotoxicity rating CASOB ([19]; Rate 63 g ai/ha): 0
- Post-emerge Herbicidal Activity, phytotoxicity rating CASOB ([19]; Rate 250 g ai/ha): 0
- Post-emerge Herbicidal Activity, phytotoxicity rating AMARE ([20]; Rate 63 g ai/ha): 100
- Post-emerge Herbicidal Activity, phytotoxicity rating AMARE ([20]; Rate 250 g ai/ha): 100
- Post-emerge Herbicidal Activity, phytotoxicity rating AMBEL ([21]; Rate 63 g ai/ha): 0
- Post-emerge Herbicidal Activity, phytotoxicity rating AMBEL ([21]; Rate 250 g ai/ha): 100
- Post-emerge Herbicidal Activity, phytotoxicity rating SETVI ([22]; Rate 63 g ai/ha): 40
- Post-emerge Herbicidal Activity, phytotoxicity rating SETVI ([22]; Rate 250 g ai/ha): 90
- Post-emerge Herbicidal Activity, phytotoxicity rating ABUTH ([23]; Rate 63 g ai/ha): 90
- Post-emerge Herbicidal Activity, phytotoxicity rating ABUTH ([23]; Rate 250 g ai/ha): 100
